From patent publication US20220144838A1, “Compounds as Inhibitors of Macrophage Migration Inhibitory Factor” (NANJING IMMUNOPHAGE BIOTECH CO., LTD., priority 2019, published 2022)

Target: T1, MIF (Homo sapiens, UniProt P14174)
T1 sequence (P14174 2-115 limits assumed): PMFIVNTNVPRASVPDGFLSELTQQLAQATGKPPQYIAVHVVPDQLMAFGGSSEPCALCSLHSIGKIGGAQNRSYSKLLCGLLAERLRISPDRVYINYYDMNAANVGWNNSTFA
Assay: MIF tautomerase assay using pHPP as substrate
Assay type: biochemical
Conditions: inhibition of the MIF enzyme in vitro; mean of multiple test results; read-out: Tautomerase Inhibition pIC50 (converted)
Outline: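 Mean pIC50 derived from initial rates (absorbance progress-curve slopes) of MIF-catalyzed ketonic-to-enolic pHPP conversion, read as enol–borate complex. Reactions contained 1.5 mM substrate and 3 nM enzyme (final), 200 mM boric acid stock buffer, BSA and CHAPS, pH 6.0.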

| SMILES | IC50 |
| --- | --- |
| NC(=O)Cn1cnc2c(N3CCc4ccccc43)nc(N3CCN(c4ccc(O)cc4)CC3)nc21 [Example 32, 2-(2-(4-(4-hydroxyphenyl)piperazin-1-yl)-6-(indolin-1-yl)-9H-purin-9-yl)acetamide] | 1000 to 9770 nM |
| OCCn1cnc2c(N[C@@H](CO)Cc3ccccc3)nc(N3CCN(c4ccc(O)cc4)CC3)nc21 [Example 5, (R)-4-(4-(6-((1-hydroxy-3-phenylpropan-2-yl)amino)-9-(2-hydroxyethyl)-9H-purin-2-yl)piperazin-1-yl)phenol] | > 10000 nM |
| CCOc1ncccc1-n1cnc2c(N)nc(N3CCN(c4ccc(O)cc4)CC3)nc21 [Example 83, 4-(4-(6-amino-9-(2-ethoxypyridin-3-yl)-9H-purin-2-yl)piperazin-1-yl)phenol] | 1000 to 9770 nM |
| Cc1nc(N2CCC(O)(c3cccc(O)c3)CC2)nc2c1ncn2-c1ccncc1 [Example 206, 4-(3-hydroxyphenyl)-1-(6-methyl-9-(pyridin-4-yl)-9H-purin-2-yl)piperidin-4-ol] | 100 to 977 nM |
| O=C(O)Cn1cnc2c(-c3cccc4[nH]ncc34)nc(N3CCN(c4ccc(O)cc4)CC3)nc21 [Example 34, 2-(2-(4-(4-hydroxyphenyl)piperazin-1-yl)-6-(1H-indazol-4-yl)-9H-purin-9-yl)acetic acid] | 1000 to 9770 nM |
| OCCn1cnc2c(-n3ncc4ccccc43)nc(N3CCN(c4ccc(CO)cn4)CC3)nc21 [Example 154, 2-(2-(4-(5-(hydroxymethyl)pyridin-2-yl)piperazin-1-yl)-6-(1H-indazol-1-yl)-9H-purin-9-yl)ethan-1-ol] | > 10000 nM |
| O=C(O)C1CCCN1c1nc(N2CCN(c3ccc(O)cc3)CC2)nc2c1ncn2-c1ccncc1 (stereo not drawn) [Example 167, (2-(4-(4-hydroxyphenyl)piperazin-1-yl)-9-(pyridin-4-yl)-9H-purin-6-yl)proline] | 10 to 97.7 nM |
| O=C(O)CNc1nc(N2CCN(c3ccc(O)cc3)CC2)nc2c1ncn2-c1ccncc1 [Example 163, (2-(4-(4-hydroxyphenyl)piperazin-1-yl)-9-(pyridin-4-yl)-9H-purin-6-yl)glycine] | 10 to 97.7 nM |
| Nc1nc(N2CCC(O)(C#CCO)CC2)nc2c1ncn2-c1ccncc1 [Example 198, 1-(6-amino-9-(pyridin-4-yl)-9H-purin-2-yl)-4-(3-hydroxyprop-1-yn-1-yl)piperidin-4-ol] | > 10000 nM |
| O=C(O)Cn1cnc2c(-n3nc(C(=O)O)c4ccccc43)nc(N3CCN(c4ccc(O)cc4)CC3)nc21 [Example 10, 1-(9-(carboxymethyl)-2-(4-(4-hydroxyphenyl)piperazin-1-yl)-9H-purin-6-yl)-1H-indazole-3-carboxylic acid] | 10 to 97.7 nM |
| CN(CC(=O)O)c1nc(N2CCC(O)(c3ccc(O)cc3)CC2)nc2c1ncn2-c1ccncc1 [Example 205, N-(2-(4-hydroxy-4-(4-hydroxyphenyl)piperidin-1-yl)-9-(pyridin-4-yl)-9H-purin-6-yl)-N-methylglycine] | 100 to 977 nM |
| Cc1nc(N2CCC(O)(c3ccc(O)cc3)CC2)nc2c1ncn2CC(=O)O [Example 215, 2-(2-(4-hydroxy-4-(4-hydroxyphenyl)piperidin-1-yl)-6-methyl-9H-purin-9-yl)acetic acid] | > 10000 nM |
| O=C(O)Cn1cnc2c(-n3ncc4ccccc43)nc(N3CCC(O)(c4ccccc4)C3)nc21 (stereo not drawn) [Example 161, 2-(2-(3-hydroxy-3-phenylpyrrolidin-1-yl)-6-(1H-indazol-1-yl)-9H-purin-9-yl)acetic acid] | > 10000 nM |
| OCCn1cnc2c(-n3nc(CO)c4ccccc43)nc(N3CCN(c4ccc(O)cc4)CC3)nc21 [Example 152, 4-(4-(9-(2-hydroxyethyl)-6-(3-(hydroxymethyl)-1H-indazol-1-yl)-9H-purin-2-yl)piperazin-1-yl)phenol] | 10 to 97.7 nM |
| CC1(C(=O)O)CCCN1c1nc(N2CCN(c3ccc(O)cc3)CC2)nc2c1ncn2-c1ccncc1 (stereo not drawn) [Example 172, 1-(2-(4-(4-hydroxyphenyl)piperazin-1-yl)-9-(pyridin-4-yl)-9H-purin-6-yl)-2-methylpyrrolidine-2-carboxylic acid] | 10 to 97.7 nM |
| Cc1nc(N2CCN(c3ccc(O)cc3)CC2)nc2c1ncn2C(CO)CO [Example 110, 2-(2-(4-(4-hydroxyphenyl)piperazin-1-yl)-6-methyl-9H-purin-9-yl)propane-1,3-diol] | > 10000 nM |
| OCCn1cnc2c(-n3ncc4ccccc43)nc(N3CCN(c4ccc(O)cc4)CC3)nc21 [Example 3, 4-(4-(9-(2-hydroxyethyl)-6-(1H-indazol-1-yl)-9H-purin-2-yl)piperazin-1-yl)phenol] | 100 to 977 nM |
| O=C(O)Cn1cnc2c(-n3ncc4ccccc43)nc(N3CCC(O)(c4ccc(F)cc4)CC3)nc21 [Example 223, 2-(2-(4-(4-fluorophenyl)-4-hydroxypiperidin-1-yl)-6-(1H-indazol-1-yl)-9H-purin-9-yl)acetic acid] | 100 to 977 nM |

| SMILES | IC50 |
| --- | --- |
| NC(=O)c1ccc(C2(O)CN(c3nc(N)c4ncn(-c5ccncc5)c4n3)C2)cc1 [Example 212, 4-(1-(6-amino-9-(pyridin-4-yl)-9H-purin-2-yl)-3-hydroxyazetidin-3-yl)benzamide] | 1000 to 9770 nM |
| O=C(O)C1CCN(c2nc(N3CCN(c4ccccc4)CC3)nc3c2ncn3-c2ccncc2)C1 (stereo not drawn) [Example 182, 1-(2-(4-phenylpiperazin-1-yl)-9-(pyridin-4-yl)-9H-purin-6-yl)pyrrolidine-3-carboxylic acid] | > 10000 nM |
| O=C(O)Cn1cnc2nc(N3CCN(c4ccc(O)cc4)CC3)nc(-n3ncc4ccccc43)c21 [Example 46, 2-(2-(4-(4-hydroxyphenyl)piperazin-1-yl)-6-(1H-indazol-1-yl)-7H-purin-7-yl)acetic acid] | 100 to 977 nM |
| OC[C@@H](COCc1ccccc1)Nc1nc(N2CCN(c3ccc(O)cc3)CC2)nc2c1ncn2-c1ccncc1 [Example 176, (S)-4-(4-(6-((1-(benzyloxy)-3-hydroxypropan-2-yl)amino)-9-(pyridin-4-yl)-9H-purin-2-yl)piperazin-1-yl)phenol] | 100 to 977 nM |
| Cc1ccccc1-n1cnc2c(N)nc(N3CCN(c4ccc(O)cc4)CC3)nc21 [Example 76, 4-(4-(6-amino-9-(o-tolyl)-9H-purin-2-yl)piperazin-1-yl)phenol] | > 10000 nM |
| C=CCc1nn(-c2nc(N3CCN(c4ccc(O)cc4)CC3)nc3c2ncn3CC(=O)O)c2ccccc12 [Example 147, 2-(6-(3-allyl-1H-indazol-1-yl)-2-(4-(4-hydroxyphenyl)piperazin-1-yl)-9H-purin-9-yl)acetic acid] | 1000 to 9770 nM |
| Nc1nc(N2CCN(c3ccc(C(=O)O)cn3)CC2)nc2c1ncn2-c1ccncc1 [Example 193, 6-(4-(6-amino-9-(pyridin-4-yl)-9H-purin-2-yl)piperazin-1-yl)nicotinic acid] | > 10000 nM |
| O=C(O)Cn1cnc2c(-n3ncc4ccccc43)nc(N3CCN(c4ccc(O)cc4)CC3)nc21 [Example 45, 2-(2-(4-(4-hydroxyphenyl)piperazin-1-yl)-6-(1H-indazol-1-yl)-9H-purin-9-yl)acetic acid] | 10 to 97.7 nM |
| CNC(=O)c1ccc(-n2cnc3c(N)nc(N4CCN(c5ccc(O)cc5)CC4)nc32)cc1 [Example 103, 4-(6-amino-2-(4-(4-hydroxyphenyl)piperazin-1-yl)-9H-purin-9-yl)-N-methylbenzamide] | 1000 to 9770 nM |
| O=C(O)Cn1cnc2c(-n3nnc4ccc(Cl)cc43)nc(N3CCN(c4ccc(O)cc4)CC3)nc21 [Example 18, 2-(6-(6-chloro-1H-benzo[d][1,2,3]triazol-1-yl)-2-(4-(4-hydroxyphenyl)piperazin-1-yl)-9H-purin-9-yl)acetic acid] | 10 to 97.7 nM |
| CS(=O)(=O)NCCn1cnc2c(-n3ncc4ccccc43)nc(N3CCN(c4ccc(O)cc4)CC3)nc21 [Example 139, N-(2-(2-(4-(4-hydroxyphenyl)piperazin-1-yl)-6-(1H-indazol-1-yl)-9H-purin-9-yl)ethyl)methanesulfonamide] | 1000 to 9770 nM |
| CC(C)S(=O)(=O)NC(=O)Cn1cnc2c(-n3ncc4ccccc43)nc(N3CCN(c4ccc(O)cc4)CC3)nc21 [Example 54, 2-(2-(4-(4-hydroxyphenyl)piperazin-1-yl)-6-(1H-indazol-1-yl)-9H-purin-9-yl)-N-(isopropylsulfonyl)acetamide] | 100 to 977 nM |
| O=C(O)Cn1cnc2c(-n3nnc4cccnc43)nc(N3CCN(c4ccc(O)cc4)CC3)nc21 [Example 120, 2-(6-(3H-[1,2,3]triazolo[4,5-b]pyridin-3-yl)-2-(4-(4-hydroxyphenyl)piperazin-1-yl)-9H-purin-9-yl)acetic acid] | 10 to 97.7 nM |
| O=C(O)Cn1cnc2c(-n3nc(CO)c4ccccc43)nc(N3CCN(c4ccc(O)cc4)CC3)nc21 [Example 11, 2-(6-(3-(hydroxymethyl)-1H-indazol-1-yl)-2-(4-(4-hydroxyphenyl)piperazin-1-yl)-9H-purin-9-yl)acetic acid] | 10 to 97.7 nM |
| COc1cccc(-n2cnc3c(C)nc(N4CCN(c5ccc(O)cc5)CC4)nc32)c1Cl [Example 61, 4-(4-(9-(2-chloro-3-methoxyphenyl)-6-methyl-9H-purin-2-yl)piperazin-1-yl)phenol] | 1000 to 9770 nM |
| O=C(O)Cn1cnc2c(-n3ncc4c(O)cccc43)nc(N3CCN(c4ccc(O)cc4)CC3)nc21 [Example 108, 2-(6-(4-hydroxy-1H-indazol-1-yl)-2-(4-(4-hydroxyphenyl)piperazin-1-yl)-9H-purin-9-yl)acetic acid] | 10 to 97.7 nM |
| OCC(CO)Nc1nc(N2CCN(c3ccc(O)cc3)CC2)nc2c1ncn2-c1ccncc1 [Example 173, 2-((2-(4-(4-hydroxyphenyl)piperazin-1-yl)-9-(pyridin-4-yl)-9H-purin-6-yl)amino)propane-1,3-diol] | 10 to 97.7 nM |
| Oc1ccc(N2CCN(c3nc(-n4ncc5ccccc54)c4ncn(Cc5ccccn5)c4n3)CC2)cc1 [Example 116, 4-(4-(6-(1H-indazol-1-yl)-9-(pyridin-2-ylmethyl)-9H-purin-2-yl)piperazin-1-yl)phenol] | 100 to 977 nM |
